According to patent US20130015204A1, “SINGLE-USE CONTAINERS AND USES THEREOF” (priority 2009, published 2013):
“Also recorded” adds a separate entry of the source. Read-outs that look alike come from different tables or passages of the source.

Experiments:
[1] = Heat stability studies: HPLC peak area change after heating, hot water or hot coffee; type: physicochemical; settings: for Effect of dilution with hot water and coffee on vitamin concentration: dilution with hot water or hot coffee, 80° C. or 100° C.; for Effect of heating solutions on vitamin concentration: heating to either 80° C. or 100° C. for 15 minutes; for % Deviation: vs control; for Vitamin degradation, Water 80° C.: diluted with hot water 80° C.; for Vitamin degradation, Water 100° C.: diluted with hot water 100° C.; for Vitamin degradation, Heat 80° C.: solution heated 80° C.; for Vitamin degradation, Heat 100° C.: solution heated 100° C.
Experimental: Vitamins were divided into two groups, depending on their solubility. “High concentration” vitamins were sufficiently soluble to be detected by the. HPLC analysis after 1/250 dilution. “Low concentration” vitamins were not sufficiently soluble and could not be detected after 1/250 dilution and therefore a different procedure was adopted for these compounds as described below.
High concentration vitamin (B1, B3, B5, B6) solutions
Solutions were prepared immediately before use in duplicate, using four different methods, described below: a. Dilute 1 mL of each standard solution to 250 mL with Milli-Q water at room temperature (control sample) […]
b. […] Then take a 1 mL sample from each tube and dilute to 250 mL with Milli-Q water at room temperature. c. Dilute 1 mL of each solution to 250 mL with hot water (80° C. or 100° C.). Leave for 15 minutes, then take a sample and cool immediately to room temperature. d. Dilute 1 mL of each solution to 250 mL with hot coffee (80° C. or 100° C.). Leave for 15 minutes, then take a sample and cool immediately to room temperature.
Low Concentration Vitamin (B2, B7, B9, B12) Solutions
Standard solutions were freshly prepared with Milli-Q water as described above. The test solutions below were then immediately prepared in duplicate: a. Use undiluted (control sample)
HPLC conditions were as described above.
(§1) The percentage change in individual vitamin concentrations relative to the control sample was calculated as: 100×(Atest−Acontrol)/Acontrol, where Atest and Acontrol are peak area ratios (analyte/intemal standard) for the test and control solutions respectively.
All statistical analyses were performed with SPSS 16.

[2] = water; cited from earlier work
[3] = Long term storage stability studies: HPLC, solutions stored at RT and 4° C. for up to 4 months; settings: for Long term storage stability of vitamin solution: stored at RT or 4° C., 4 month period; for Time to achieve significant falls at 4° C.: aqueous solution stored at 4° C.; for Time to achieve significant falls at RT: aqueous solution stored at RT
Experimental: Heat was applied by different methods, including placing the solution in a test tube in a bath of hot water (80° C. or 100° C.) for 15 minutes, or by mixing a concentrated solution with hot water or hot coffee (80° C. or 100° C. for both) for an equivalent time. Long term stability studies were carried out by storing individual vitamin solutions at room temperature and at 4° C. for up to 4 months and sampling these solutions at various intervals. Degradation was assessed by the change in peak area of the HPLC peak specific to each particular compound.
Vitamin solutions were prepared as for the Heat Stability Studies.
Replicate aliquots of these solutions were placed in four 15 mL Falcon tubes. Two of these tubes were stored on a shelf at room temperature (RT) in the laboratory and two in the cold room (4° C.).
At 0, 0.5, 1, 1.5, 2, 3.5, and 4 months, samples were taken from each vial for
HPLC analysis. The high concentration vitamin samples (vitamins BI, B3, B5, and B6) were diluted to 1:250 with Milli-Q water before injection and the low concentration vitamin samples (vitamins B2, B7, B9, and B12) were injected undiluted.
Samples from each of the duplicate solutions described above were injected onto the HPLC in duplicate. HPLC conditions were as described above.
Duplicate injections of the two samples were made and the mean of the four results was reported.
as §1
For the heat stability studies, statistical analysis was performed by Students t-test. For the storage stability studies, statistical analysis was performed by univariate ANOVA (General Linear Model). All statistical analyses were performed with SPSS 16.

[4] = high concentration vitamin solution, matrix coffee: diluted 1/250 with hot coffee 80° C., 15 minutes
[5] = high concentration vitamin solution, matrix coffee: diluted 1/250 with hot coffee 100° C., 15 minutes
[6] = high concentration vitamin solution, matrix heated: tube in hot water 80° C., 15 minutes
[7] = high concentration vitamin solution, matrix heated: tube in hot water 100° C., 15 minutes
[8] = high concentration vitamin solution, matrix hot water: diluted 1/250 with hot water 80° C., 15 minutes
[9] = high concentration vitamin solution, matrix hot water: diluted 1/250 with hot water 100° C., 15 minutes
[10] = greatest percentage change over the 4 month testing period, † non-significant, * significant, ‡ transient at 2 weeks
[11] = storage at RT and 4° C. for up to 4 months
[12] = low concentration vitamin solution, undiluted, heated to 80° C., 15 minutes
[13] = low concentration vitamin solution, undiluted, heated to 100° C., 15 minutes
[14] = up to 4 months, — = no significant fall

Compound	Effect of dilution with hot water and coffee on vitamin concentration [1]	Effect of heating solutions on vitamin concentration [1]	% Deviation [1, 4] [%]	% Deviation [1, 5] [%]	% Deviation [1, 6] [%]	% Deviation [1, 7] [%]	% Deviation [1, 8] [%]	% Deviation [1, 9] [%]	Aq. solubility [2] [mg/mL]	Vitamin degradation, Storage 4° C. [3, 10]	Vitamin degradation, Storage RT [3, 10]	Comment (long term storage stability) [3, 11]	Long term storage stability of vitamin solution [3]	% Deviation [1, 12] [%]	% Deviation [1, 13] [%]	Time to achieve significant falls at 4° C. [3, 14] [weeks]	Comment: Falls sustained to ([3]; storage at RT and 4° C.) [months]	Vitamin degradation, Water 80° C. ([1]; summary, 15 minutes)	Vitamin degradation, Water 100° C. ([1]; summary, 15 minutes)	Vitamin degradation, Heat 80° C. ([1]; summary, 15 minutes)	further results
Cc1ncc(C[n+]2csc(CCO)c2C)c(N)n1 [Vitamin B1, Thiamine]	unaffected	not affected	0.46	0.58	0.33	0.22	−0.04	−0.26	500	† −2.8%	† −2.4%	Stable for 4 months	stable; also recorded: no statistically significant degradation	–	–	–	–	–	–	–	–
Cc1cc2nc3c(=O)[nH]c(=O)nc-3n(C[C@H](O)[C@H](O)[C@H](O)CO)c2cc1C [Vitamin B2, riboflavin]	–	not significantly affected	–	–	–	–	–	–	–	−33.6% *	−24.7% *	–	varying levels of degradation; also recorded: little further degradation; also recorded: Significant degradation	1.5	2.85	2	4	–	–	–	Time to achieve significant falls at RT [3, 14]: 2 weeks; Degradation after 2 weeks at 4° C. ([3]; storage at 4° C., 2 weeks): 33.6%; Degradation after 2 weeks at RT ([3]; storage at RT, 2 weeks): 24.7%
NC(=O)c1cccnc1 [Vitamin B3, niacinamide]	Statistically significant reductions	not affected	−3.72	−3.62	−0.24	−0.86	0.33	0.4	–	† −1.1%	† −1.8%	Stable for 4 months	stable; also recorded: no statistically significant degradation	–	–	–	–	†† (non-significant reductions in vitamin concentrations of <2% in response to heat treatment)	†† (non-significant reductions in vitamin concentrations of <2% in response to heat treatment)	†† (non-significant reductions in vitamin concentrations of <2% in response to heat treatment)	Vitamin degradation, Heat 100° C. ([1]; summary, 15 minutes): †† (non-significant reductions in vitamin concentrations of <2% in response to heat treatment)
Cc1ncc(CO)c(CO)c1O.Cl [Vitamin B6, pyroxidine hydrochloride]	unaffected	not affected	−0.63	−1.47	0.05	−0.28	1.39	1.64	–	–	–	–	–	–	–	–	–	–	–	–	Comment (long term storage stability) [3]: Stable for 4 months; Vitamin degradation, Storage 4° C. [3]: † −2.5%; Vitamin degradation, Storage RT [3]: † −1.5%
O=C(O)CCCC[C@@H]1SC[C@@H]2NC(=O)N[C@@H]21 [Vitamin B7, biotin]	–	not significantly affected	–	–	–	–	–	–	0.22	−27.4% ‡	−15.9% ‡	Stable for 4 months	varying levels of degradation; also recorded: no statistically significant degradation; also recorded: transient reductions	−0.47	−1.89	–	–	–	–	†† (non-significant reductions in vitamin concentrations of <2% in response to heat treatment)	Vitamin degradation, Heat 100° C. ([1]; summary, 15 minutes): †† (non-significant reductions in vitamin concentrations of <2% in response to heat treatment)
calcium (+)-pantothenate [Vitamin B5]	unaffected	Statistically significant reductions	1.78	0.31	−2.78	−2.27	−0.77	−1.15	–	−3.9% *	−3.3% *	–	varying levels of degradation; also recorded: significant degradation	–	–	2	4	†† (non-significant reductions in vitamin concentrations of <2% in response to heat treatment)	†† (non-significant reductions in vitamin concentrations of <2% in response to heat treatment)	–	Vitamin degradation, Coffee 80° C. ([1]; summary, diluted with hot coffee 80° C., 15 minutes): †† (non-significant reductions in vitamin concentrations of <2% in response to heat treatment); Vitamin degradation, Coffee 100° C. ([1]; summary, diluted with hot coffee 100° C., 15 minutes): †† (non-significant reductions in vitamin concentrations of <2% in response to heat treatment); Time to achieve significant falls at RT ([3]; up to 4 months): 1.5 months; Comment: size of falls at all times ([3]; storage at RT and 4° C., up to 4 months): < 5%; Degradation at any time for either temperature ([3]; storage at RT or 4° C., entire 4 month test period): less than 4%
